# Patent US20220220135A1 (BAR-ILAN UNIVERSITY, priority 2019, published 2022)
# Columns and labels:
# NTPDase1 = target: T1, NTPDase1 (Homo sapiens, UniProt P49961); experiment: Stability to hydrolysis by human NTPDase1; type: in vitro ADME; details: analogue 100 μM; activity with 100 μM ATP = 100%
# T1 sequence (P49961 1-510): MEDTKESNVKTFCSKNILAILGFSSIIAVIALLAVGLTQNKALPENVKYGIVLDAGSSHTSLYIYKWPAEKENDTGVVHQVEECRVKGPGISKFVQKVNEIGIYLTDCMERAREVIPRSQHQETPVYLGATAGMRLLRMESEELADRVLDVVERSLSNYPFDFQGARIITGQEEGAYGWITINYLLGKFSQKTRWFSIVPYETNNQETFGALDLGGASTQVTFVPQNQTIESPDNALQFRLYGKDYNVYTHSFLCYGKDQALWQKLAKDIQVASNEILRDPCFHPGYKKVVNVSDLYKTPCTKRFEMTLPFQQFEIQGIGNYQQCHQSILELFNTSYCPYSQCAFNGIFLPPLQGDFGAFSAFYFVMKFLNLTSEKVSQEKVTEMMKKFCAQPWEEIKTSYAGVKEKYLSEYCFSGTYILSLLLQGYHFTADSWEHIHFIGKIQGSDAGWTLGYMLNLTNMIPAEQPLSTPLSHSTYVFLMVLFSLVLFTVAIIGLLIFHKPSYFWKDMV
# Description: Uridine 5′-Pα,α-phosphorodithioate analogues, 9-12, were tested for their stability to degradation by NPP1 and NTPDases. These enzymes are involved in the metabolism of extracellular nucleotides. Analogues 9-12 were not hydrolyzed by hNPP1 (Table 2). […] Analogue 10 was hydrolyzed by hNTPDase1, -2 and -3 at 30-39% the rate of ATP and was slightly hydrolyzed by human NTPDase8 at 16% the rate of ATP.
# Analogues 9-12 were incubated in the presence of the indicated ectonucleotidase at a concentration of 100 μM. The activity with 100 μM ATP was set as 100%, which was 329±108, 302±34, 263±51, 195±76 nmol of Pi·min−1·mg of protein−1 for NTPDase1, -2, -3 and -8, respectively, and 34±7 nmol for NPP1. Data presented are the mean±SEM of results from two experiments.
# P2Y6R = P2Y6R (Homo sapiens, UniProt Q15077); experiment: Calcium mobilization in 1321N1 astrocytoma cells expressing human P2Y6R; type: cell-based; set-up: expressed in transfected cells; host or cells: 1321N1 astrocytoma cells (stably transfected)
# P2Y6R, sequence (Q15077 whole entry): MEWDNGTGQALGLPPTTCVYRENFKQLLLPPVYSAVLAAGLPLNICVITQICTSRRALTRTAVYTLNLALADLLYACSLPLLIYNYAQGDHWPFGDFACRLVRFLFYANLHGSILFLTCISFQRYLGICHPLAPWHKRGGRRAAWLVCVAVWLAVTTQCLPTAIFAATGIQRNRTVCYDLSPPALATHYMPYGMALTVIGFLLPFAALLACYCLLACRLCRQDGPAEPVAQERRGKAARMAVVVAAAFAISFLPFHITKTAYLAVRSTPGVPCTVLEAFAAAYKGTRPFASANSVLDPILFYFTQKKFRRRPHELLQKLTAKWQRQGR
# Description: (§1) Given the structural resemblance of 106-109 to the natural ligands of P2Y receptors, adenine and uracil nucleotides as natural substrates, were assessed for agonist potency on the human P2Y1, P2Y2, P2Y4, and P2Y6 receptor. To evaluate NPP1 selectivity of analogs 106-109, they were tested for their ability to activate of the uridine-nucleotide sensitive human recombinant P2Y1,2,4,6-receptors. The agonist potencies of this series of nucleotide analogues on the Gq protein-coupled human P2Y1R, P2Y2R, P2Y4R, and P2Y6R was determined by assessing its ability to induce calcium mobilization in stably transfected 1321N1 astrocytoma cells (Table 8). The nucleotide analogues were found in calcium mobilization assays to activate the P2Y2R with mid-micromolar potency.
# rat CD73 = target: T2, rat CD73 (Rattus norvegicus, UniProt P21588); experiment: Inhibition of rat CD73, 5 μM [3H]AMP as substrate; type: biochemical; details: 5 μM [3H]AMP as a substrate; n = 3
# T2 sequence (P21588 29-551): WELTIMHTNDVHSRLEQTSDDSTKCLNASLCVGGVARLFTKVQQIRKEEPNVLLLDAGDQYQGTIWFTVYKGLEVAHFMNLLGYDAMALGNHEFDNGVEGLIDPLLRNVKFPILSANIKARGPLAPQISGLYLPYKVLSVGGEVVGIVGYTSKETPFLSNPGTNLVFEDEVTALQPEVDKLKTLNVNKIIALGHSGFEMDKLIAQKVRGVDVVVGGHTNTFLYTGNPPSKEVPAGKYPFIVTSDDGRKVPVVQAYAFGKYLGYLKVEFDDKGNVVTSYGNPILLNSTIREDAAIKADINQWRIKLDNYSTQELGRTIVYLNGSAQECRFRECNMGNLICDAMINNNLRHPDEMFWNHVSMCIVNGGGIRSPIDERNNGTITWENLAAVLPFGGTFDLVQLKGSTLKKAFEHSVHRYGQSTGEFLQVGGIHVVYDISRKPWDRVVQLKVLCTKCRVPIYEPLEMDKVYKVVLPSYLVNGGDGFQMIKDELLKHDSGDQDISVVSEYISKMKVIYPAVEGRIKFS
# human P2Y4R = target: T3, human P2Y4R (Homo sapiens, UniProt P51582); experiment: Calcium mobilization in 1321N1 astrocytoma cells expressing human P2Y4R; type: cell-based
# T3 construct: expressed in transfected cells; host or cells: 1321N1 astrocytoma cells
# T3 sequence (P51582 whole entry): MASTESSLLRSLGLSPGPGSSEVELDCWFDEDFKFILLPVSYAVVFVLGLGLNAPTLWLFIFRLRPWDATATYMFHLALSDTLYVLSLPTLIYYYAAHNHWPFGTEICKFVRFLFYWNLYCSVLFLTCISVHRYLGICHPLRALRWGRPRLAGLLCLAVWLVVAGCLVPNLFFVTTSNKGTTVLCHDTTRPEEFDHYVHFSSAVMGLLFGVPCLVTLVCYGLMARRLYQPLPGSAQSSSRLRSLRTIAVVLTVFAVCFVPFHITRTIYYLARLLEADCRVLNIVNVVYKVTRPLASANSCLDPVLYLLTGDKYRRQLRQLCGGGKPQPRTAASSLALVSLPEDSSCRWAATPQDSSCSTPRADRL
# Description: as §1
SMILES,"Relative activity (%) ± SEM of ATP hydrolysis, NTPDase1 (NTPDase1)","% activation at 10 μM, P2Y6 (P2Y6R)","% inhibition ± SEM, rat CD73 (rat CD73)","% activation at 10 μM, P2Y4 (human P2Y4R)"
O=c1ccn([C@@H]2O[C@H](COP(=S)(S)OP(=O)(O)OP(=O)(O)O)[C@@H](O)[C@H]2O)c(=O)[nH]1 (stereo partly shown) [Analogue 10],30.8 ± 3.2%,–,–,–
Nc1ncnc2c1ncn2COCCOP(=S)(S)OP(=O)(O)O (stereo not shown) [compound 106],–,−2 ± 1%,n.i.d,0 ± 0%
